Measured values as given in the supplement of paper PMC10307832.

Tests used:
Assay in all cases: relative viability (nuclei count vs DMSO), 5 days (fraction); higher = more cells survive
Irinotecan + Foretinib = compound: CCc1c2c(nc3ccc(OC(=O)N4CCC(N5CCCCC5)CC4)cc13)-c1cc3c(c(=O)n1C2)COC(=O)[C@]3(O)CC [Irinotecan] + COc1cc2c(Oc3ccc(NC(=O)C4(C(=O)Nc5ccc(F)cc5)CC4)cc3F)ccnc2cc1OCCCN1CCOCC1 [Foretinib] (partner 0.25 µM)
Method in brief: (§1)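 The day after seeding in 1536-well plates, lung cancer cell lines were treated by pin tool with a single drug, or with a fixed anchor-drug dose together with five library-drug doses (not always all listed) in √10 steps. After 5 days, a combined fix-and-stain solution (final 0.05% Triton X-100, 1% formaldehyde, 1 ug/ml Hoechst) was added. Nuclei counted on 4× images gave relative viability as treated counts over vehicle counts, reported as the median of duplicate plates.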

Irinotecan + Crizotinib = compound: CCc1c2c(nc3ccc(OC(=O)N4CCC(N5CCCCC5)CC4)cc13)-c1cc3c(c(=O)n1C2)COC(=O)[C@]3(O)CC [Irinotecan] + C[C@@H](Oc1cc(-c2cnn(C3CCNCC3)c2)cnc1N)c1c(Cl)ccc(F)c1Cl [Crizotinib] (partner 1 µM)
Method in brief: as §1

Irinotecan + Olaparib = compound: CCc1c2c(nc3ccc(OC(=O)N4CCC(N5CCCCC5)CC4)cc13)-c1cc3c(c(=O)n1C2)COC(=O)[C@]3(O)CC [Irinotecan] + O=C(c1cc(Cc2n[nH]c(=O)c3ccccc23)ccc1F)N1CCN(C(=O)C2CC2)CC1 [Olaparib] (partner 8 µM)
Method in brief: as §1

RU-SKI 43 + Bortezomib = compound: CC[C@@H](C)CNCC(=O)N1CCC2=C([C@@H]1COC3=CC=CC(=C3)C)C=CS2 [RU-SKI 43] + CC(C)C[C@H](NC(=O)[C@H](Cc1ccccc1)NC(=O)c1cnccn1)B(O)O [Bortezomib] (partner 0.002 µM)
Method in brief: as §1

Question: With UMC-11 as the cell line, how does the relative viability (Irinotecan + Foretinib; first compound 0.6325 µM) read?
Answer: The relative viability was 0.704.

Question: And the relative viability (Irinotecan + Foretinib; first compound 2 µM)?
Answer: Its relative viability is 0.518.

Question: And the relative viability (Irinotecan + Foretinib; first compound 6.325 µM)?
Answer: The relative viability was 0.337.

Question: What about the relative viability (Irinotecan + Foretinib; first compound 20 µM) of the same cell line?
Answer: Its relative viability is 0.237.

Question: And the relative viability (Irinotecan + Crizotinib; first compound 0.6325 µM)?
Answer: The relative viability was 0.296.

Question: What about the relative viability (Irinotecan + Crizotinib; first compound 2 µM) of the same cell line?
Answer: Its relative viability is 0.374.

Question: And the relative viability (Irinotecan + Crizotinib; first compound 6.325 µM)?
Answer: Its relative viability is 0.326.

Question: And the relative viability (Irinotecan + Crizotinib; first compound 20 µM)?
Answer: Its relative viability is 0.157.

Question: What about the relative viability (Irinotecan + Olaparib; first compound 0.6325 µM) of the same cell line?
Answer: The relative viability was 0.273.

Question: What about the relative viability (Irinotecan + Olaparib; first compound 2 µM) of the same cell line?
Answer: Its relative viability is 0.206.

Question: And the relative viability (Irinotecan + Olaparib; first compound 6.325 µM)?
Answer: The relative viability was 0.283.

Question: And the relative viability (Irinotecan + Olaparib; first compound 20 µM)?
Answer: Its relative viability is 0.226.

Question: What about the relative viability (RU-SKI 43 + Bortezomib; first compound 0.1 µM) of the same cell line?
Answer: Its relative viability is 0.731.

Question: What about the relative viability (RU-SKI 43 + Bortezomib; first compound 0.3162 µM) of the same cell line?
Answer: The relative viability was 1.1.

Question: What about the relative viability (RU-SKI 43 + Bortezomib; first compound 1 µM) of the same cell line?
Answer: Its relative viability is 1.05.

Question: What about the relative viability (RU-SKI 43 + Bortezomib; first compound 3.162 µM) of the same cell line?
Answer: The relative viability was 0.666.

Question: And the relative viability (RU-SKI 43 + Bortezomib; first compound 10 µM)?
Answer: The relative viability was 0.927.
